“Also recorded” adds a separate entry of the source. Like-named read-outs stand apart in the source and are kept apart here.
Assays:
[1] = system: anti-immunoglobulin E-stimulated CD63 expression on basophils; test: CD63 assay: ex vivo anti-IgE-stimulated CD63 expression on whole-blood basophils; type: cell-based, human
[2] = Aqueous solubility of mono-mesylate salt; type: physicochemical
[3] = Safety and tolerability, FIH study; type: in vivo, human
[4] = Safety and tolerability, fed studies; type: in vivo, human; details: n = 40
[5] = for C trough: Day 7 (steady state), mean (%CV)
[6] = fed vs fasted, dose-dependent
[7] = target: uridine 5′-diphospho-glucuronosyltransferase (UGT) 1A1; details: read-out: UGT1A1 inhibition IC50; in vitro; cited from earlier work
[8] = system: relapsed or refractory CLL; details: 800 mg twice-daily oral, relapsed or refractory CLL (n = 41), cited from earlier work
clinical [9] = details: human, in vivo, po
clinical [10] = details: human, in vivo; for Tmax: t max; for Tmax / half-life: fasted; for half-life: t ½
B cell malignancies = details: 200 or 250 mg twice daily, cited from earlier work
[11] = FIH study (fasted), multiple dose, n = 56
[12] = FIH study (fasted), single dose, n = 40
[13] = po, 200 mg, Day 7 (steady state), 200 mg twice daily oral, median (interquartile range)
[14] = po, 600 mg, Day 7 (steady state), 600 mg twice daily oral, median (interquartile range)
[15] = po, 1200 mg, Day 7 (steady state), 1200 mg twice daily oral, median (interquartile range)

## c1cn2cc(-c3ccc4cn[nH]c4c3)nc(Nc3ccc(N4CCOCC4)cc3)c2n1 [entospletinib, Entospletinib]
[1]; doses ≥600 mg twice daily, 12 h post-dose
  inhibition of CD63 expression maintained at C trough: ≥ 63%
[1]; doses ≥600 mg twice daily, peak at 2–4 h post-dose
  maximal mean inhibition of CD63 expression: ≥ 86%
[1]; plasma concentration–response, percentage of baseline
  EC50 for inhibition of CD63: 0.429 µg/mL
[2]; aqueous buffer, pH 2
  solubility: 3000 µg/mL
[2]; aqueous medium
  solubility: < 1 µg/mL
[3]; FIH and fed studies
  severity of adverse events: mild to moderate; also recorded: mild or moderate
[3]; FIH study
  discontinuations due to treatment-related AEs: no AE-driven study drug discontinuations
[3]; [11]
  Laboratory abnormality Grade ≥3: ALT: 1 (1.8) n (%)
  Laboratory abnormality Grade ≥3: AST: 1 (1.8) n (%)
  Laboratory abnormality Grade ≥3: Total bilirubin: 1 (1.8) n (%)
  Treatment-related AE: Headache: 18 (32.1) n (%)
  Treatment-related AE: Oropharyngeal pain: 6 (10.7) n (%)
  Treatment-related AE: Rhinorrhea: 7 (12.5) n (%)
[3]; [12]
  Laboratory abnormality Grade ≥3: Creatinine kinase: 1 (2.5) n (%)
  Treatment-related AE: Headache: 5 (12.5) n (%)
  Treatment-related AE: Nausea: 6 (10.7) n (%)
[3]; single or multiple oral doses, healthy adults
  tolerability: generally well-tolerated; also recorded: When administered in single or multiple oral doses in healthy adults, entospletinib monotherapy is generally well-tolerated
[4]
  Treatment-related AE: Headache: 10 (25.0) n (%)
  Treatment-related AE: Oropharyngeal pain: 5 (12.5) n (%)
  Treatment-related AE: Urinary tract infection: 1 (2.5) n (%)
[5]; 7 days of twice-daily dosing, fasted
  increase in exposure (C max and AUC) on day 7 compared with day 1: 2- to 4 fold
[5]; 25 mg twice daily oral, fasted
  C trough: 11.9 (64.5) ng/mL
[5]; 75 mg twice daily oral, fasted
  C trough: 79.2 (64.0) ng/mL
[5]; 200 mg twice daily oral, fasted
  C trough: 380 (63.3) ng/mL
[5]; 600 mg twice daily oral, fasted
  C trough: 1242 (65.6) ng/mL
[5]; 900 mg twice daily oral, fasted
  C trough: 1473 (67.2) ng/mL
[5]; 1200 mg twice daily oral, fasted
  C trough: 1471 (79.6) ng/mL
[5]; doses of 600 mg twice daily or higher
  steady-state C trough levels: > 1200 ng/mL
[5]; single and multiple oral administration, fasted
  terminal t ½: 9 h
[6]
  reduction in AUC under fed conditions: 20–80%
  reduction in C max under fed conditions: 20–70%
[7]
  IC50: ~2.5 µM
[8]; at 24 weeks
  progression-free survival (PFS) rate: 70.1%
[8]
  median PFS: 13.8 months
Clinical [9]
  half-life: ~9 h
Clinical [9]; 25 mg
  AUC(0-inf): 231 ng·h/mL
  Cmax: 42.3 ng/mL
  Tmax: 2 h
  half-life: 6.77 h
Clinical [9]; 75 mg
  AUC(0-inf): 413 ng·h/mL
  Cmax: 67.8 ng/mL
  Tmax: 2.75 h
  half-life: 5.31 h
Clinical [9]; 200 mg
  AUC(0-inf): 4250 ng·h/mL
  Cmax: 534 ng/mL
  Tmax: 2 h
  half-life: 9.51 h
Clinical [9]; 600 mg
  Cmax: 779 ng/mL
  Tmax: 2 h
  half-life: 7.72 h
Clinical [9]; 1200 mg
  AUC(0-inf): 9740 ng·h/mL
  Cmax: 1060 ng/mL
  Tmax: 3.25 h
  half-life: 9.59 h
Clinical [10]; [13]
  Tmax: 2.27 h
  half-life: 10 h
Clinical [10]; [14]
  Tmax: 2.25 h
  half-life: 15.4 h
Clinical [10]; po, 900 mg
  AUC(0-t): 5860 ng·h/mL
Clinical [10]; [15]
  Tmax: 2.75 h
  half-life: 13.9 h
Clinical [10]; doses ≤200 mg twice daily
  half-life: ~9 h

## COc1cc(Nc2ncc(F)c(Nc3ccc4c(n3)N(COP(=O)(O)O)C(=O)C(C)(C)O4)n2)cc(OC)c1OC [fostamatinib]
B cell malignancies; CLL/small lymphocyte leukemia
  overall response rate (ORR): 55%
B cell malignancies; DLBCL
  overall response rate (ORR): 22%
B cell malignancies; FL
  overall response rate (ORR): 10%
B cell malignancies; MCL
  overall response rate (ORR): 11%
